Measurements taken from US20200261445A1, “USE OF SENOLYTIC AGENTS TO ELIMINATE PERSISTENT HIV RESERVOIRS” (The George Washington University, priority 2017, published 2020).

Assays:
Bcl-2 family proteins = settings: selectivity within the Bcl-2 family, Table 1; cited from earlier work
Bcl-xL = Bcl-xL (Homo sapiens, UniProt Q07817); settings: Table 1; cited from earlier work
resting CD4+ T cells = test: Cell cytotoxicity in HIV latency reservoir model cultures; format: cell-based, human; settings: ABT-199 at 1 μM; not enough cells left to measure replication-competent virus (FIG. 9A)
Description: (§1) For each condition tested, up to 200×10^6 PBMC were thawed from leukapheresis material. An aliquot of PBMCs was stained with antibodies to CD3, CD4, CD8, HLA-DR, and CD69 for flow cytometry analysis (pre-selection sample). Resting CD4^+ T-cells were enriched from these PBMC by negative selection (Easysep CD4^+ T-cell enrichment kit, Stemcell Technologies) following the manufacturer's instructions. Cells were washed and re-suspended in 1 ml of 2% FBS PBS and an aliquot was stained as above (post-selection sample). To proceed, >98% pure resting CD4^+ T-cells in the negative fraction we required.
NK cells and CTL clones were added at 1:10 effector:target ratios, with or without the indicated latency reversing agents. Co-cultures were performed at 2×10^6 cells/ml in XVIVO-15 serum free medium (Lonza) that had been supplemented with penicillin-streptomycin, L-glutamine, 0.1 nM IL-7 (to support survival), 1 μM tenofovir, 1 μM nevirapine, 1 μM emtricitabine, 10 μM T20, 10 U/ml DNAse I (ProSpec) ([…]). […]
Co-cultures were harvested at 4 days post-initiation of co-culture. […] CD4^+ T-cells were then fixed in 2% paraformaldehyde, and analyzed by flow cytometry on an LSR-II instrument and with FlowJo software. […]

[1] = test system: HIV latency reservoir models spiked into natural reservoirs; test: 'Spiked' HIVE assay with QVOA (latency model cells spiked into natural reservoirs); format: cell-based; settings: Bryostatin 10 nM, ABT-199 100 nM, HIV-specific CTLs, FIG. 10
Description: For experiments using CTL clones as effectors, clones were used at […] after their most recent re-stimulation. Specificity, functionality, and responsiveness of CTLs were confirmed by CD107a degranulation assays, as well as by HIV elimination assays the day before assay setup. Clones were washed extensively prior to addition to co-culture.
NK cells and CTL clones were added at 1:10 effector:target ratios, with or without the indicated latency reversing agents. […]
(§2) Co-cultures were harvested at 4 days post-initiation of co-culture. […] CD4^+ T-cells were then fixed in 2% paraformaldehyde, and analyzed by flow cytometry on an LSR-II instrument and with FlowJo software.
(§3) DNA quantification: 2×10^6 cells/condition were centrifuged and DNA, for ddPCR, was extracted from cell pellets using the Gentra Puregene kit (Qiagen), following the manufacturer's instructions. This DNA was then analyzed by digital droplet polymerase chain reaction (see below). Infectious virus quantification: The remaining cells, to be used for viral outgrowth assays, were incubated overnight in R10-50+4 nM IL-15SA (ALT-803) at a concentration of 2×10^6 cells/ml. These cells are then plated out in quantitative viral outgrowth assays (see below). […]

[2] = test system: HIV latency reservoir (resting CD4+ T cells); test: HIVE assay with quantitative viral outgrowth (IUPM), three HIV latency reservoir models; format: cell-based; settings: A-463 only (100 nM per FIG. 9F); all three models; p<0.01
Description: as §1, with “required. […]” for “required.”
as §2, §3

[3] = test system: HIV latency reservoir (resting CD4+ T cells); test: HIVE assay with ddPCR of total HIV DNA, three HIV latency reservoir models; format: cell-based; settings: A-463 only (100 nM per FIG. 9E); all three models; p<0.01
Description: as §1, with “required. […]” for “required.”
as §2, §3

Sequence of Bcl-xL (Q07817 whole entry): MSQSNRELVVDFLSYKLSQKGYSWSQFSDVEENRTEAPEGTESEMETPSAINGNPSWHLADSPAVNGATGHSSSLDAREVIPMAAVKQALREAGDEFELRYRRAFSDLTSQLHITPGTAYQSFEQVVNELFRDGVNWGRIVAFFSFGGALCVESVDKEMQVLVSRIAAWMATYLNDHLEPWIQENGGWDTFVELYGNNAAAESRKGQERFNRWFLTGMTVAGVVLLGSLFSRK

Compound | Selective/pan (Bcl-2 family proteins) | Known Bcl-xL inhibition (Bcl-xL) | further results
CC(C)=CCC[C@]1(C)C=Cc2c(O)c3c(c(CC=C(C)C)c2O1)O[C@]12C(=C[C@@H]4C[C@H]1C(C)(C)O[C@@]2(C/C=C(/C)C(=O)O)C4=O)C3=O [Gambogic Acid] | Pan | Yes | –
CC(C)C(C(=O)O)N1C(=O)/C(=C\c2ccc(Br)cc2)SC1=S (centres unmarked) [BH31-1] | Pan | Yes | –
CC1(C)CCC(CN2CCN(c3ccc(C(=O)NS(=O)(=O)c4ccc(NCC5CCOCC5)c([N+](=O)[O-])c4)c(Oc4cnc5[nH]ccc5c4)c3)CC2)=C(c2ccc(Cl)cc2)C1 [ABT-199, Venetoclax] | – | – | cell cytotoxicity (resting CD4+ T cells): cell cytotoxicity
CCC/C=C/C=C/C(=O)O[C@H]1/C(=C/C(=O)OC)C[C@H]2C[C@H]([C@@H](C)O)OC(=O)C[C@H](O)C[C@@H]3C[C@H](OC(C)=O)C(C)(C)[C@](O)(C[C@@H]4C/C(=C/C(=O)OC)C[C@H](/C=C/C(C)(C)[C@]1(O)O2)O4)O3 [Bryostatin, bryostatin 1] | – | – | IUPM compared to the NoTx condition [1]: did not lead to significant decreases
Cc1cc2c(C(=O)NC[C@H](C)c3ccccc3)c(O)c(O)cc2c(O)c1-c1c(C)cc2c(C(=O)NC[C@H](C)c3ccccc3)c(O)c(O)cc2c1O [Sabutoclax] | Pan | Yes | –
ABT-263 | Pan | Yes | –
Cc1cc2c(C(C)C)c(O)c(O)c(C=O)c2c(O)c1-c1c(C)cc2c(C(C)C)c(O)c(O)c(C=O)c2c1O [AT101] | Pan | Yes | –
Cc1nn(C)c(COc2ccc(N3CCN(S(=O)(=O)N(C)C)CC3)cc2)c1-c1cccc2c(CCCOc3cccc4ccccc34)c(C(=O)O)n(CCN3CCOCC3)c12 [A-1210477] | Selective | – | –
CN(C)CC#Cc1ccc(OCCCc2sc(N3CCc4cccc(C(=O)Nc5nc6ccccc6s5)c4C3)nc2C(=O)O)c(F)c1 [A-1155463] | Selective | – | infectious replicative competent (IUPM) [2]: statistically significant reduction; total HIV DNA copies [3]: statistically significant reduction
O=C(O)CSc1cc(NS(=O)(=O)c2ccc(Br)cc2)c2ccccc2c1O [UMI-77] | Selective | – | –
CC(C)c1ccccc1Cc1cc(C(=O)Nc2ccc(S(=O)(=O)c3ccccc3C(C)(C)C)cc2)c(O)c(O)c1O [TW-37] | Pan | Yes | –
Cc1c(-c2ccc(N3CCc4cccc(C(=O)Nc5nc6ccccc6s5)c4C3)nc2C(=O)O)cnn1CC12CC3CC(CC(C3)C1)C2 [A-1331852] | Selective | – | –
